From patent US11052154B2, “Ras protein degradation inducing molecule and pharmaceutical composition” (Tokyo University of Science Foundation, priority 2016, dated 2021) come the findings set out here.

The test system of one assay is HeLa cells. The experiment in a line: Apoptosis induction in HeLa cells, FACS analysis (Annexin V/PI). Type of assay: cell-based, human. Particulars: HeLa cells expressing wild-type K-Ras, 24 hours after addition; FIGS. 6A, 7A. As to the method:
In Example 7, apoptosis induction in a case where TUS-007, Ras-SOS, or Ras-SOS-NH2 was added to HeLa cells or SW1990 cells (human pancreatic cancer cells) had been added was evaluated by the FACS analysis. It is noted that in HeLa cells, the wild-type K-Ras protein (K-Ras-WT) is expressed, and in SW1990 cells, the G12D mutant K-Ras protein (K-Ras-G12D) is expressed.
HeLa cells or SW1990 cells were seeded in a 24-well plate at a cell density of 8×10^4 cells/well, and then cultured under conditions of 37° C. and 5 vol % CO2 for 16 hours.
After 16 hours from cell seeding, TUS-007, Ras-SOS, or Ras-SOS-NH2 were added to HeLa cells or SW1990 cells as follows. As a medium, a serum-free medium (37° C.) in which 1 mass % L-glutamine solution (Sigma-Aldrich) was added to D-MEM (high D-glucose, phenol red, sodium pyruvate (Wako Pure Chemical Industries, Ltd.)) was used. It is noted that the L-glutamine solution was added immediately before use. A DMSO solution containing TUS-007, Ras-SOS, or Ras-SOS-NH2 was mixed with the medium so that the concentration of DMSO was 1 vol %, and added to each well at 500 μL/well, and cultured under conditions of 37° C. and 5 vol % CO2. As a control, DMSO was used.
The medium was removed 24 hours after addition of TUS-007, Ras-SOS, or Ras-SOS-NH2, and then PBS was added to wash the cells. After removing PBS, trypsin (0.25 w/v % trypsin-1 mmol/L EDTA⋅4 Na solution with phenol red) (Wako Pure Chemical Industries, Ltd.) at 37° C. was added to each well at 200 μL/well, and cultured under conditions of 37° C. and 5 vol % CO2 for 1 minute. […]
A BD FACSCanto™ II (BD Biosciences) was used for flow cytometry. […] The proportion of Annexin V-positive and PI-negative cells was calculated using an analysis software FlowJo™ (TOMY Digital Biology Co., Ltd.), and the proportion was defined as a proportion of apoptosis cells.
In Example 8, apoptosis induction in a case where TUS-007, Ras-SOS-NH2, or erlotinib as an anticancer agent (EGFR inhibitor) was added to HeLa cells or SW1990 cells was evaluated by FACS analysis as in Example 7.
(In general: A flow cytometer gives signals particle by particle.)

Assay [1] concerns the target T1, endogenous wild-type H-Ras protein (Mus musculus, UniProt Q61411).
T1 construct: an endogenous wild-type K-Ras protein and wild-type H-Ras protein; from tissue; host or cells: mouse pancreas and colon
The experiment in a line: Degradation of endogenous wild-type H-Ras protein in mouse pancreas and colorectal tissue, Western blot analysis. Conditions: C57BL/6J mice, intraperitoneal, 48 hours, FIG. 8. Type of assay: in vivo. As to the method:
In Example 9, in a mouse individual to which TUS-007 had been administered, the degradation (knockdown) of an endogenous wild-type K-Ras protein and wild-type H-Ras protein was evaluated by Western blot analysis.
TUS-007 was dissolved in DMSO, and then dissolved in corn oil so that the concentration of DMSO was 10 vol %, and then intraperitoneally administered to C57BL/6J wild-type mice (8 to 9 weeks old, male) (CLEA Japan, Inc.) in an amount of 40 mg/kg body weight or 80 mg/kg body weight (n=3 to 4). Furthermore, in addition to a group in which TUS-007 was administered, a group in which Ras-SOS had been administered in a dose of 80 mg/kg body weight was prepared. As a control, an injection carrier (corn oil containing 10 vol % DMSO) was used. The mice were kept under an environment of ad libitum access to food and water. The mice were dissected under deep anesthesia 48 hours after administration. The pancreas and colon were excised, and flash frozen in liquid nitrogen.
The frozen pancreas and colon were each triturated, and then TKM tissue lysis buffer (50 mM triethanolamine (pH 7.8), 50 mM KCl, 5 mM MgCl2, 0.25 M sucrose, 1 mM PMSF, Protein Inhibitors Cocktail-EDTA free (Nacalai Tesque, Inc.), 1 mM DTT, and a recombinant RNase inhibitor (0.2 U/μL, Takara Bio) were added, and subjected to centrifugation (at 13800 rpm×30 minutes, 4° C.), and the supernatants (pancreatic tissue extract and colorectal tissue extract) were collected. The concentration of the extracted proteins was quantified with a spectrophotometer.
Each tissue extract collected was subjected to Western blot analysis. […]
After electrophoresis, proteins were transferred to a PVDF membrane (Immobion™-P, Millipore) under conditions of 200 mA and 90 minutes using a tank-type blotting device and a transfer buffer (25 mM Tris-HCl, 195 mM glycine, 0.01% SDS, 15% methanol). […] Subsequently, the membrane was treated with a chemiluminescence reagent Immobilon™ Western (Millipore), and then chemiluminescence was detected using a lumino image analyzer LAS-3000 (FUJIFILM Corporation).
(In western blotting, separated proteins are transferred to a membrane and probed.)

T1 sequence (Q61411 whole entry): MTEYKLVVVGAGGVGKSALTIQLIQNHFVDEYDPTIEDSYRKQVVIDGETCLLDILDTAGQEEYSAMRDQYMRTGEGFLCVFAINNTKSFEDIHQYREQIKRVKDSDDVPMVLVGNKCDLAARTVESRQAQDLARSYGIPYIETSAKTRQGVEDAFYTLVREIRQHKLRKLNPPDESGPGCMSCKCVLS

Turning to `CCC(C)[C@H](NC(=O)CCCCCCNC(=O)[C@H](CC(C)C)NC(=O)CNC(=O)c1cc(Cl)ccc1Cl)C(=O)Nc1ccc2[nH]c(Cc3c[nH]c4ccccc34)nc2c1` (stereo in doubt) [TUS-007], the “apoptosis induction (proportion of Annexin V-positive and PI-negative cells)” value with HeLa cells is “apoptosis was induced in a concentration-dependent manner”. In addition, the “amount of the endogenous wild-type H-Ras protein in the pancreatic tissue (Western blot)” value in assay [1] (40 or 80 mg/kg, pancreatic tissue) is given as “remarkably reduced in the pancreatic tissue”. In addition, the “amount of the endogenous wild-type H-Ras protein in mouse tissues (Western blot)” value in assay [1] (TUS-007 40 or 80 mg/kg, Ras-SOS 80 mg/kg, pancreas and colon) is reported as “reduced in a concentration-dependent manner”.
